Measured values from PubChem BioAssay AID1918932 (Molecular Pharmacology Branch, DTP, NCI, 2023).
pIC50: −log10 of the molar value.

Tested on: 171881-019-R-J1-PDC complex spheroid viability
Assay: Anticancer human tumor 171881-019-R-J1-PDC patient-derived invasive breast carcinoma cell line growth inhibition
Conditions: for pIC50: curve of first compound; for viability, T/C: stronger effect = lower value
From the text: Multicellular complex tumor spheroid response to LSD1 Inhibitor Iadademstat in combination with a variety of drugs and investigational agents in selected tumor cell lines
The current study was undertaken to assess response to LSD1 inhibitors in combination with standard-of-care drugs and investigational agents in solid tumor complex spheroid models as well as in the K-562 leukemia. Complex spheroids include a stromal component modeled by human endothelial cells (HUVEC) and fibroblasts modeled by human mesenchymal stem cells (MSCs). The concentration ranges selected for each drug and investigational agent were based upon clinically achievable concentrations if the clinical Cmax of the agent was known.
Compounds. The drugs and investigational agents used in this study are listed on Table 1. All of the agents used, including staurosporine (NSC755774) and gemcitabine (NSC613327), were obtained from the Developmental Therapeutics Program, NCI. FDA-approved anticancer drugs are available from the NCI at http://dtp.nci.nih.gov/branches/dscb/oncology_drugset_explanation.html. Drugs and investigational agents were >95% pure by proton nuclear magnetic resonance (NMR) and liquid chromatography/mass spectrometry (LC/MS). Stock solutions were prepared at 400x in DMSO, stored at -70 degrees C, and diluted in fresh medium prior to their use. The final concentration of DMSO in cell culture wells never exceeded 0.25% (v/v). The FDA-approved anticancer drug set is available from the Developmental Therapeutics Program at https://dtp.cancer.gov/organization/dscb/obtaining/available_plates.htm. All drugs and investigational agents were tested over a range starting from a high concentration at or near the clinical Cmax and decreasing in half-log increments. If the clinical Cmax for an agent had not been determined, the highest concentration tested was 10 microM.
Cell Lines. The patient-derived cancer cell (PDC) lines: 292921-168-R-J2-PDC, K24384-001-R-PDC, and 521955-158-R2-J5-PDC pancreatic carcinomas, 556581-035-R-J1 ovarian carcinoma, 324938-238-R-J1-PDC, 855422-203-R-J1-PDC and 883617-216-R-J1-PDC urothelial bladder carcinomas, 743489-274-T-PDC renal cell carcinoma, 138582-R-J1 Merkel cell tumor, K60290-347-R-J1 and K57222-313-R-J1-PDC glioblastomas, 653999-131-R-J2-PDC, LG0703-F948-PDC, and 349418-098-R-PDC non-small cell lung carcinomas, 885512-296-R-J2-PDC, 171881-019-R-J1-PDC breast carcinomas and 186277-243-T-J2-PDC and 233499-124-R-J2-PDC colon carcinomas were obtained from the NCI Patient-Derived Models Repository (PDMR, https://pdmr.cancer.gov). The established cell lines NCI/ADR-RES (RRID:CVCL_14520 and OVCAR-5 (RRID:CVCL_1628) ovarian carcinomas, 786-O (RRID:CVCL_1051) and A498 (RRID:CVCL_A498) renal cell carcinoma, NCI-H211 (ATCC, cat. CRL-5824; RRID:CVCL_1529), NCI-H196 (ATCC, cat. CRL-5823, RRID:CVCL_1509), SW 1271 (ATCC, cat. CRL-2177, RRID:CVCL_1716) and NCI-H1876 (ATCC, cat. CRL-5902, RRID:CVCL_1503) small cell lung carcinomas, MDA-MB-231 (RRID:CVCL_0062) and MDA-MB-468 (RRID:CVCL_0419)breast carcinomas (10-12). Pooled donor human umbilical vein endothelial cells (HUVEC, Lonza, cat. CC-2519) and human mesenchymal stem cells (hMSC, Lonza, cat. PT-2501) were purchased from Lonza (Walkersville, MD).
Cell Culture. All cells were maintained in an incubator at 37 degrees C and 5% CO2 with 95% humidity. The PDC lines were cultured according to standard operating procedures established by the NCI PDMR (https://pdmr.cancer.gov). Briefly all PDCs were thawed and cultured in Matrigel-coated flasks prepared with a working solution of 1X Ham's F-12 nutrient mix, without supplementation (Invitrogen, Waltham, MA, cat. 11765054), 100 U/mL penicillin-streptomycin (Invitrogen, cat. 15140122), and 2.5% Matrigel (Corning Inc., Corning, NY, cat. 354248) for the first three passages. […]
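Also: spheroids exposed to agents for 7 days after 3 days growth.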

**Q.** How did the pIC50 (second compound 0.1 µM) turn out when `COc1cc(Nc2ncc3c(n2)-c2ccc(Cl)cc2C(c2c(F)cccc2OC)=NC3)ccc1C(=O)O` + NC1CCC(NC2CC2c2ccccc2)CC1 was run?
**A.** Its pIC50 is < 6.00.

**Q.** What about the pIC50 (second compound 0.316 µM) of the same compound?
**A.** The pIC50 was < 6.00.

**Q.** What about the pIC50 (second compound 1 µM) of the same compound?
**A.** Its pIC50 is < 6.00.

**Q.** And the pIC50 (second compound 3.16 µM)?
**A.** Its pIC50 is < 6.00.

**Q.** What about the pIC50 (second compound 10 µM) of the same compound?
**A.** Its pIC50 is < 6.00.

**Q.** And the viability, T/C (second compound 0.1 µM, first compound 0.00316 µM)?
**A.** The viability, T/C was 105%.

**Q.** What about the viability, T/C (second compound 0.1 µM, first compound 0.01 µM) of the same compound?
**A.** The viability, T/C was 99.2%.

**Q.** And the viability, T/C (second compound 0.1 µM, first compound 0.0316 µM)?
**A.** The viability, T/C was 100%.

**Q.** And the viability, T/C (second compound 0.1 µM, first compound 0.1 µM)?
**A.** Its viability, T/C is 99.6%.

**Q.** And the viability, T/C (second compound 0.1 µM, first compound 0.316 µM)?
**A.** The viability, T/C was 93.7%.

**Q.** What about the viability, T/C (second compound 0.1 µM, first compound 1 µM) of the same compound?
**A.** The viability, T/C was 60.1%.

**Q.** And the viability, T/C (second compound 0.316 µM, first compound 0.00316 µM)?
**A.** Its viability, T/C is 111%.

**Q.** And the viability, T/C (second compound 0.316 µM, first compound 0.01 µM)?
**A.** The viability, T/C was 92.9%.

**Q.** What about the viability, T/C (second compound 0.316 µM, first compound 0.0316 µM) of the same compound?
**A.** The viability, T/C was 98.6%.

**Q.** And the viability, T/C (second compound 0.316 µM, first compound 0.1 µM)?
**A.** The viability, T/C was 95.9%.

**Q.** What about the viability, T/C (second compound 0.316 µM, first compound 0.316 µM) of the same compound?
**A.** The viability, T/C was 92.4%.

**Q.** What about the viability, T/C (second compound 0.316 µM, first compound 1 µM) of the same compound?
**A.** The viability, T/C was 59.2%.

**Q.** What about the viability, T/C (second compound 1 µM, first compound 0.00316 µM) of the same compound?
**A.** Its viability, T/C is 112%.

**Q.** And the viability, T/C (second compound 1 µM, first compound 0.01 µM)?
**A.** The viability, T/C was 107%.

**Q.** And the viability, T/C (second compound 1 µM, first compound 0.0316 µM)?
**A.** The viability, T/C was 93.5%.

**Q.** What about the viability, T/C (second compound 1 µM, first compound 0.1 µM) of the same compound?
**A.** The viability, T/C was 105%.

**Q.** And the viability, T/C (second compound 1 µM, first compound 0.316 µM)?
**A.** The viability, T/C was 88.5%.

**Q.** What about the viability, T/C (second compound 1 µM, first compound 1 µM) of the same compound?
**A.** The viability, T/C was 62.2%.

**Q.** What about the viability, T/C (second compound 3.16 µM, first compound 0.00316 µM) of the same compound?
**A.** Its viability, T/C is 110%.

**Q.** And the viability, T/C (second compound 3.16 µM, first compound 0.01 µM)?
**A.** Its viability, T/C is 104%.

**Q.** What about the viability, T/C (second compound 3.16 µM, first compound 0.0316 µM) of the same compound?
**A.** Its viability, T/C is 95.7%.

**Q.** And the viability, T/C (second compound 3.16 µM, first compound 0.1 µM)?
**A.** Its viability, T/C is 88.3%.

**Q.** What about the viability, T/C (second compound 3.16 µM, first compound 0.316 µM) of the same compound?
**A.** The viability, T/C was 92%.

**Q.** What about the viability, T/C (second compound 3.16 µM, first compound 1 µM) of the same compound?
**A.** Its viability, T/C is 60.9%.

**Q.** And the viability, T/C (second compound 10 µM, first compound 0.00316 µM)?
**A.** Its viability, T/C is 113%.

**Q.** And the viability, T/C (second compound 10 µM, first compound 0.01 µM)?
**A.** Its viability, T/C is 111%.

**Q.** And the viability, T/C (second compound 10 µM, first compound 0.0316 µM)?
**A.** The viability, T/C was 97.6%.

**Q.** And the viability, T/C (second compound 10 µM, first compound 0.1 µM)?
**A.** Its viability, T/C is 104%.

**Q.** And the viability, T/C (second compound 10 µM, first compound 0.316 µM)?
**A.** The viability, T/C was 86.7%.

**Q.** And the viability, T/C (second compound 10 µM, first compound 1 µM)?
**A.** Its viability, T/C is 60.7%.
